Source: the supplement of paper PMC10307832

What was measured:
Assay in all cases: relative viability (nuclei count vs DMSO), 5 days (fraction); higher = more cells survive
Neratinib + Vorinostat = compound: CCOc1cc2ncc(C#N)c(Nc3ccc(OCc4ccccn4)c(Cl)c3)c2cc1NC(=O)/C=C/CN(C)C [Neratinib] + O=C(CCCCCCC(=O)Nc1ccccc1)NO [Vorinostat] (partner 1 µM)
Method in brief: (§1)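 Cells from lung cancer lines were seeded into 1536-well plates and, one day later, dosed by pin tool. Treatments were either a single drug or a fixed dose of an anchor drug with five library-drug doses (not always all listed) in √10 steps. After 5 days, nuclei were stained in a one-step fixation (final 0.05% Triton X-100, 1% formaldehyde, 1 ug/ml Hoechst) and counted on 4× images, and relative viability is the treated-to-vehicle nuclei ratio, as the median of duplicate plates.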

Neratinib + Pemetrexed = compound: CCOc1cc2ncc(C#N)c(Nc3ccc(OCc4ccccn4)c(Cl)c3)c2cc1NC(=O)/C=C/CN(C)C [Neratinib] + Nc1nc2[nH]cc(CCc3ccc(C(=O)N[C@@H](CCC(=O)O)C(=O)O)cc3)c2c(=O)[nH]1 [Pemetrexed] (partner 0.2 µM)
Method in brief: as §1

Neratinib + Dasatinib = compound: CCOc1cc2ncc(C#N)c(Nc3ccc(OCc4ccccn4)c(Cl)c3)c2cc1NC(=O)/C=C/CN(C)C [Neratinib] + Cc1nc(Nc2ncc(C(=O)Nc3c(C)cccc3Cl)s2)cc(N2CCN(CCO)CC2)n1 [Dasatinib] (partner 0.075 µM)
Method in brief: as §1

Neratinib + Palbociclib = compound: CCOc1cc2ncc(C#N)c(Nc3ccc(OCc4ccccn4)c(Cl)c3)c2cc1NC(=O)/C=C/CN(C)C [Neratinib] + CC(=O)c1c(C)c2cnc(Nc3ccc(N4CCNCC4)cn3)nc2n(C2CCCC2)c1=O [Palbociclib] (partner 0.5 µM)
Method in brief: as §1

With NCI-H2126 the relative viability (Neratinib + Vorinostat; first compound 0.01 µM) was 0.776, the relative viability (Neratinib + Vorinostat; first compound 0.03162 µM) was 0.79 and the relative viability (Neratinib + Vorinostat; first compound 0.1 µM) was 0.706. It also gave a relative viability (Neratinib + Vorinostat; first compound 0.3162 µM) of 0.574, a relative viability (Neratinib + Vorinostat; first compound 1 µM) of 0.379 and a relative viability (Neratinib + Pemetrexed; first compound 0.01 µM) of 0.659. For the same cell line, the relative viability (Neratinib + Pemetrexed; first compound 0.03162 µM) was 0.638, the relative viability (Neratinib + Pemetrexed; first compound 0.1 µM) was 0.623 and the relative viability (Neratinib + Pemetrexed; first compound 0.3162 µM) was 0.616. The relative viability (Neratinib + Pemetrexed; first compound 1 µM) was 0.404, the relative viability (Neratinib + Dasatinib; first compound 0.01 µM) was 0.589 and the relative viability (Neratinib + Dasatinib; first compound 0.03162 µM) was 0.602. For the same cell line, the relative viability (Neratinib + Dasatinib; first compound 0.1 µM) was 0.523, the relative viability (Neratinib + Dasatinib; first compound 0.3162 µM) was 0.426 and the relative viability (Neratinib + Dasatinib; first compound 1 µM) was 0.338. For the same cell line, the relative viability (Neratinib + Palbociclib; first compound 0.01 µM) was 0.33, the relative viability (Neratinib + Palbociclib; first compound 0.03162 µM) was 0.347 and the relative viability (Neratinib + Palbociclib; first compound 0.3162 µM) was 0.344. The relative viability (Neratinib + Palbociclib; first compound 1 µM) was 0.309.
With NCI-H2170 the relative viability (Neratinib + Vorinostat; first compound 0.01 µM) was 0.862, the relative viability (Neratinib + Vorinostat; first compound 0.03162 µM) was 0.647 and the relative viability (Neratinib + Vorinostat; first compound 0.1 µM) was 0.407. For the same cell line, the relative viability (Neratinib + Vorinostat; first compound 0.3162 µM) was 0.205, the relative viability (Neratinib + Vorinostat; first compound 1 µM) was 0.239 and the relative viability (Neratinib + Pemetrexed; first compound 0.01 µM) was 0.275. The relative viability (Neratinib + Pemetrexed; first compound 0.03162 µM) was 0.261, the relative viability (Neratinib + Pemetrexed; first compound 0.1 µM) was 0.237 and the relative viability (Neratinib + Pemetrexed; first compound 0.3162 µM) was 0.203. For the same cell line, the relative viability (Neratinib + Pemetrexed; first compound 1 µM) was 0.196, the relative viability (Neratinib + Dasatinib; first compound 0.01 µM) was 0.527 and the relative viability (Neratinib + Dasatinib; first compound 0.03162 µM) was 0.563. It also gave a relative viability (Neratinib + Dasatinib; first compound 0.1 µM) of 0.283, a relative viability (Neratinib + Dasatinib; first compound 0.3162 µM) of 0.176 and a relative viability (Neratinib + Dasatinib; first compound 1 µM) of 0.196. The relative viability (Neratinib + Palbociclib; first compound 0.01 µM) was 0.361, the relative viability (Neratinib + Palbociclib; first compound 0.03162 µM) was 0.352 and the relative viability (Neratinib + Palbociclib; first compound 0.1 µM) was 0.199. It also gave a relative viability (Neratinib + Palbociclib; first compound 0.3162 µM) of 0.144 and a relative viability (Neratinib + Palbociclib; first compound 1 µM) of 0.151.
Cell Line NCI-H2228 has a relative viability (Neratinib + Vorinostat; first compound 0.01 µM) of 0.769, a relative viability (Neratinib + Vorinostat; first compound 0.03162 µM) of 0.871 and a relative viability (Neratinib + Vorinostat; first compound 0.1 µM) of 0.623. The relative viability (Neratinib + Vorinostat; first compound 0.3162 µM) was 0.7, the relative viability (Neratinib + Vorinostat; first compound 1 µM) was 0.318 and the relative viability (Neratinib + Pemetrexed; first compound 0.01 µM) was 0.382. For the same cell line, the relative viability (Neratinib + Pemetrexed; first compound 0.03162 µM) was 0.362, the relative viability (Neratinib + Pemetrexed; first compound 0.1 µM) was 0.306 and the relative viability (Neratinib + Pemetrexed; first compound 0.3162 µM) was 0.271. The relative viability (Neratinib + Pemetrexed; first compound 1 µM) was 0.147, the relative viability (Neratinib + Dasatinib; first compound 0.01 µM) was 0.494 and the relative viability (Neratinib + Dasatinib; first compound 0.03162 µM) was 0.566. It also gave a relative viability (Neratinib + Dasatinib; first compound 0.1 µM) of 0.366, a relative viability (Neratinib + Dasatinib; first compound 0.3162 µM) of 0.45 and a relative viability (Neratinib + Dasatinib; first compound 1 µM) of 0.102. It also gave a relative viability (Neratinib + Palbociclib; first compound 0.01 µM) of 0.666, a relative viability (Neratinib + Palbociclib; first compound 0.03162 µM) of 0.95 and a relative viability (Neratinib + Palbociclib; first compound 0.1 µM) of 0.765. The relative viability (Neratinib + Palbociclib; first compound 0.3162 µM) was 0.655 and the relative viability (Neratinib + Palbociclib; first compound 1 µM) was 0.169.
NCI-H2342 was tested, and the relative viability (Neratinib + Vorinostat; first compound 0.01 µM) was 0.797, the relative viability (Neratinib + Vorinostat; first compound 0.03162 µM) was 0.88 and the relative viability (Neratinib + Vorinostat; first compound 0.1 µM) was 0.647. For the same cell line, the relative viability (Neratinib + Vorinostat; first compound 0.3162 µM) was 0.585, the relative viability (Neratinib + Vorinostat; first compound 1 µM) was 0.54 and the relative viability (Neratinib + Pemetrexed; first compound 0.01 µM) was 0.722. It also gave a relative viability (Neratinib + Pemetrexed; first compound 0.03162 µM) of 0.774, a relative viability (Neratinib + Pemetrexed; first compound 0.1 µM) of 0.714 and a relative viability (Neratinib + Pemetrexed; first compound 0.3162 µM) of 0.564. For the same cell line, the relative viability (Neratinib + Pemetrexed; first compound 1 µM) was 0.497, the relative viability (Neratinib + Dasatinib; first compound 0.01 µM) was 0.326 and the relative viability (Neratinib + Dasatinib; first compound 0.03162 µM) was 0.318. The relative viability (Neratinib + Dasatinib; first compound 0.1 µM) was 0.285, the relative viability (Neratinib + Dasatinib; first compound 0.3162 µM) was 0.26 and the relative viability (Neratinib + Dasatinib; first compound 1 µM) was 0.318. For the same cell line, the relative viability (Neratinib + Palbociclib; first compound 0.01 µM) was 0.52, the relative viability (Neratinib + Palbociclib; first compound 0.03162 µM) was 0.493 and the relative viability (Neratinib + Palbociclib; first compound 0.1 µM) was 0.534. For the same cell line, the relative viability (Neratinib + Palbociclib; first compound 1 µM) was 0.454.
For NCI-H2347, the relative viability (Neratinib + Vorinostat; first compound 0.01 µM) was 0.64, the relative viability (Neratinib + Vorinostat; first compound 0.03162 µM) was 0.715 and the relative viability (Neratinib + Vorinostat; first compound 0.1 µM) was 0.55. The relative viability (Neratinib + Vorinostat; first compound 0.3162 µM) was 0.634, the relative viability (Neratinib + Vorinostat; first compound 1 µM) was 0.407 and the relative viability (Neratinib + Pemetrexed; first compound 0.01 µM) was 0.423. The relative viability (Neratinib + Pemetrexed; first compound 0.03162 µM) was 0.479, the relative viability (Neratinib + Pemetrexed; first compound 0.1 µM) was 0.396 and the relative viability (Neratinib + Pemetrexed; first compound 0.3162 µM) was 0.495. For the same cell line, the relative viability (Neratinib + Pemetrexed; first compound 1 µM) was 0.449, the relative viability (Neratinib + Dasatinib; first compound 0.01 µM) was 0.282 and the relative viability (Neratinib + Dasatinib; first compound 0.03162 µM) was 0.35. It also gave a relative viability (Neratinib + Dasatinib; first compound 0.3162 µM) of 0.375, a relative viability (Neratinib + Dasatinib; first compound 1 µM) of 0.2 and a relative viability (Neratinib + Palbociclib; first compound 0.01 µM) of 0.401. It also gave a relative viability (Neratinib + Palbociclib; first compound 0.03162 µM) of 0.41, a relative viability (Neratinib + Palbociclib; first compound 0.1 µM) of 0.341 and a relative viability (Neratinib + Palbociclib; first compound 0.3162 µM) of 0.494. It also gave a relative viability (Neratinib + Palbociclib; first compound 1 µM) of 0.479.
Work on NCI-H2405 yielded a relative viability (Neratinib + Vorinostat; first compound 0.01 µM) of 1.32, a relative viability (Neratinib + Vorinostat; first compound 0.03162 µM) of 1.18 and a relative viability (Neratinib + Vorinostat; first compound 0.1 µM) of 0.955. The relative viability (Neratinib + Vorinostat; first compound 0.3162 µM) was 1.04, the relative viability (Neratinib + Vorinostat; first compound 1 µM) was 0.891 and the relative viability (Neratinib + Pemetrexed; first compound 0.01 µM) was 1.19. It also gave a relative viability (Neratinib + Pemetrexed; first compound 0.03162 µM) of 1.16, a relative viability (Neratinib + Pemetrexed; first compound 0.1 µM) of 1.02 and a relative viability (Neratinib + Pemetrexed; first compound 0.3162 µM) of 1.04. It also gave a relative viability (Neratinib + Dasatinib; first compound 0.01 µM) of 0.225, a relative viability (Neratinib + Dasatinib; first compound 0.03162 µM) of 0.23 and a relative viability (Neratinib + Dasatinib; first compound 0.1 µM) of 0.218. The relative viability (Neratinib + Dasatinib; first compound 0.3162 µM) was 0.212, the relative viability (Neratinib + Dasatinib; first compound 1 µM) was 0.199 and the relative viability (Neratinib + Palbociclib; first compound 0.01 µM) was 0.56. For the same cell line, the relative viability (Neratinib + Palbociclib; first compound 0.03162 µM) was 0.579, the relative viability (Neratinib + Palbociclib; first compound 0.1 µM) was 0.534 and the relative viability (Neratinib + Palbociclib; first compound 0.3162 µM) was 0.567. For the same cell line, the relative viability (Neratinib + Palbociclib; first compound 1 µM) was 0.419.
NCI-H3122 gave a relative viability (Neratinib + Vorinostat; first compound 0.01 µM) of 1.04, a relative viability (Neratinib + Vorinostat; first compound 0.03162 µM) of 1.09 and a relative viability (Neratinib + Vorinostat; first compound 0.1 µM) of 1.02. It also gave a relative viability (Neratinib + Vorinostat; first compound 0.3162 µM) of 0.992, a relative viability (Neratinib + Vorinostat; first compound 1 µM) of 0.609 and a relative viability (Neratinib + Pemetrexed; first compound 0.01 µM) of 0.197. It also gave a relative viability (Neratinib + Pemetrexed; first compound 0.03162 µM) of 0.214, a relative viability (Neratinib + Pemetrexed; first compound 0.1 µM) of 0.179 and a relative viability (Neratinib + Pemetrexed; first compound 0.3162 µM) of 0.551. For the same cell line, the relative viability (Neratinib + Pemetrexed; first compound 1 µM) was 0.187, the relative viability (Neratinib + Dasatinib; first compound 0.01 µM) was 0.872 and the relative viability (Neratinib + Dasatinib; first compound 0.03162 µM) was 0.939. The relative viability (Neratinib + Dasatinib; first compound 0.1 µM) was 0.729, the relative viability (Neratinib + Dasatinib; first compound 0.3162 µM) was 0.565 and the relative viability (Neratinib + Dasatinib; first compound 1 µM) was 0.132. The relative viability (Neratinib + Palbociclib; first compound 0.01 µM) was 0.205, the relative viability (Neratinib + Palbociclib; first compound 0.03162 µM) was 0.208 and the relative viability (Neratinib + Palbociclib; first compound 0.1 µM) was 0.188. It also gave a relative viability (Neratinib + Palbociclib; first compound 0.3162 µM) of 0.181 and a relative viability (Neratinib + Palbociclib; first compound 1 µM) of 0.148.
Work on PC-3 [JPC-3] yielded a relative viability (Neratinib + Vorinostat; first compound 0.01 µM) of 1.14, a relative viability (Neratinib + Vorinostat; first compound 0.03162 µM) of 0.82 and a relative viability (Neratinib + Vorinostat; first compound 0.1 µM) of 0.783. For the same cell line, the relative viability (Neratinib + Vorinostat; first compound 0.3162 µM) was 0.424, the relative viability (Neratinib + Vorinostat; first compound 1 µM) was 0.665 and the relative viability (Neratinib + Pemetrexed; first compound 0.01 µM) was 1.44. The relative viability (Neratinib + Pemetrexed; first compound 0.03162 µM) was 1.32, the relative viability (Neratinib + Pemetrexed; first compound 0.1 µM) was 1.07 and the relative viability (Neratinib + Pemetrexed; first compound 0.3162 µM) was 0.564. It also gave a relative viability (Neratinib + Pemetrexed; first compound 1 µM) of 0.43, a relative viability (Neratinib + Dasatinib; first compound 0.01 µM) of 1.11 and a relative viability (Neratinib + Dasatinib; first compound 0.03162 µM) of 1.1. The relative viability (Neratinib + Dasatinib; first compound 0.1 µM) was 0.885, the relative viability (Neratinib + Dasatinib; first compound 0.3162 µM) was 0.757 and the relative viability (Neratinib + Dasatinib; first compound 1 µM) was 0.286. The relative viability (Neratinib + Palbociclib; first compound 0.01 µM) was 0.513, the relative viability (Neratinib + Palbociclib; first compound 0.03162 µM) was 0.559 and the relative viability (Neratinib + Palbociclib; first compound 0.1 µM) was 0.492. It also gave a relative viability (Neratinib + Palbociclib; first compound 0.3162 µM) of 0.544 and a relative viability (Neratinib + Palbociclib; first compound 1 µM) of 0.471.
